Measurements taken from US12157713B2, “Conjugated oligoelectrolytes as antimicrobial agents” (Nanyang Technological University, priority 2018, dated 2024).
Where “and” joins values, the source holds several entries; their conditions need not be identical. Identical values can stand only once. Like-named read-outs stand apart in the source and are kept apart here.

Assays:
[1] = test system: Pseudomonas aeruginosa ATCC 27853; test: Single-dose growth inhibition, Pa; type: cell-based
Experimental: Inhibition of bacterial growth was determined by measuring the absorbance at 600 nm (OD600), using a Tecan M1000 Pro monochromator plate reader. Growth inhibition was calculated for each well, relative to the reference growths determined from a negative control (media only) and positive control (bacteria without inhibitors) incubated in the same plate. A single dose of 32 μg/mL of COE (final concentration) was used for each test.
(§1) Percentage growth inhibition of an individual sample was calculated based on growth in a reference well determined from negative controls (media only) and positive controls (bacterial/fungal media without inhibitors). Negative inhibition values indicate that the growth rate (or OD600) is higher compared to the reference growth (bacteria/fungi only, set to 0% inhibition). The growth rates for all bacteria and fungi may vary at −/+10%, which were within the reported normal distribution of bacterial/fungal growth. Any significant variations (or outliers/hits) were identified by the modified Z-Score, and the active compounds were selected by a combination of inhibition values and Z-Score.
(§2) A M(i) value of >|2.5| (absolute) would classify the sample as outliers or hits. Active samples were denoted as compounds with inhibition values equal to or above 80% and absolute Z-Score above |2.5| for either replicate (n=2 on different plates). Partial active samples were denoted as compounds with inhibition values from 50% to <80%, or absolute Z-Score below |2.5|.

[2] = test system: E. coli K12; test: Cellular uptake by E. coli K12 (absorption spectroscopy); type: cell-based, Escherichia coli; settings: for Uptake by E. coli K12: 10 μg/mL COE in PBS, OD=0.5, 2 hrs, room temperature; for Uptake by E. coli K12 at 4° C.: 10 μg/mL COE, 2 hrs, 4° C. (below membrane phase transition temperature)
Experimental: The relative membrane affinity of COE-D4, COE-D6 and COE-D8 was estimated from the quantity taken up by cells using absorption spectroscopy. After cultures of E. coli K12 were grown in MHB at 37° C., the cells were harvested by centrifugation (6000 rpm, 5 min) and washed twice with PBS solution (pH=7.2). The cells were then resuspended in PBS and with the density adjusted to OD=1.0. Thereafter, 5 mL of this cell suspension was mixed with an equal volume of 20 μg/mL of COE in PBS to achieve a final concentration of 10 μg/mL (in triplicates). After exposure to COEs for 2 hrs at room temperature and with shaking (200 rpm), the cells were removed by centrifugation and the supernatant was collected for absorbance scans to quantify the remaining COE in the supernatant. The uptake quantity was estimated by comparing the absorbance of the supernatant to the corresponding control COE solution (i.e. 10 μg/mL in PBS). The procedure for uptake measurements at the lower temperature is similar to the one described above, but with the exposure to COEs and centrifugation occurring at 4° C. instead of room temperature
The effect of molecular structures of the COEs on relative membrane affinity, estimated from the amount taken up by E. coli K12, was measured by absorption spectroscopy (FIG. 8a-c). These experiments utilised cell suspensions (OD=0.5) incubated for 2 hrs with 10 μg mL^−1 of various COE. Cells were removed by centrifugation, and the amount of uncomplexed COE was determined from the optical absorption spectra. The longest molecule, COE-D8, achieved the highest uptake in bacteria (72%). In contrast, only 3% of COE-D4 was absorbed while the uptake for COE-D6 was 16% (Table 1a).
Parallel experiments were carried out at 4° C. […] As a result of the reduced fluidity of cellular membrane at lower temperature, the uptake decreased to around 1% for COE-D4, 5% for COE-D6, and 34% for COE-D8.

[3] = test system: E. coli K12; test: MIC by broth microdilution against E. coli K12; type: cell-based; settings: Escherichia coli
Experimental: The respective minimum inhibition concentration (MIC) of each COE molecule was determined using a broth microdilution method. Briefly, COEs were diluted via a 2-fold dilution series in 100 μL of either Muller Hinton Broth (MHB) for E. coli and S. aureus or Brain Heart Infusion Broth (BHI) for E. faecalis in a 96-well plate to achieve the desired final concentration. Subsequently, each well was inoculated with 100 μL of 1×10^6 colony forming units (CFU) mL^−1 of the respective microorganism in MHB for E. coli or BHI for E. faecalis to achieve an inoculum density of 5×10^5 CFU mL^−1. The plates were then incubated at 37° C. with shaking (200 rpm) for 18 hrs. […] The results were obtained in triplicate.
The MIC values of COE-D4, COE-D6 and COE-D8 against the reference strain E. coli K12, pathogenic E. coli UT189, and the Gram positive pathogen Enterococcus faecalis OG1RF were determined using a broth microdilution method as described in the general method above. The MICs for E. coli K12 were determined to be 128, 16, and 4 μg mL^−1 for COE-D4, COE-D6, and COE-D8, respectively (FIG. 5a). […] This is not surprising as these two organisms differ in the capsular polysaccharides that they expressed, which are known to hinder the uptake of antimicrobials and mitigate their potency (M. A. Campos, et al., Infect. Immun. 2004, 72, 7107-7114). A K-type capsid comprising α2-8-linked sialic acid is excreted by UT189 and is known to be an important virulence factor for this organism (C. Whitfield, et al., Mol. Microbiol. 1999, 31, 1307-1319; G. G. Anderson, et al., Infect. Immun. 2010, 78, 963-975).

[4] = test system: Candida albicans ATCC 90028; test: Single-dose growth inhibition, Ca; type: cell-based
Experimental: Growth inhibition of C. albicans was determined by measuring the absorbance at 530 nm (OD530), while the growth inhibition of C. neoformans was determined by measuring the difference in absorbance between 600 and 570 nm (OD600-570), after the addition of resazurin (0.001 wt. % final concentration) and incubation at 35° C. for additional 2 hrs. The absorbance was measured using a Biotek Synergy HTX plate reader. The relative growth inhibition was calculated for each well, relative to that determined from a negative control (media only) and positive control (bacteria without inhibitors) on the same plate as references. A single dose of 32 μg/mL of COE (final concentration) was used for each test.
as §1, §2

[5] = ATCC27853, read-out: Growth inhibition Pa
[6] = K12, 18 h, read-out: MIC against E. coli K12
[7] = K12, read-out: MIC against E. coli K12
[8] = K12, read-out: MICeff (MIC×U %)
[9] = ATCC90028, read-out: Growth inhibition Ca
[10] = ATCC27853, 32 μg/mL single dose, n=2, read-out: Growth inhibition Pa
[11] = K12, broth microdilution, MHB, 18 hrs, read-out: MIC against E. coli K12
[12] = ATCC90028, 32 μg/mL single dose, n=2, read-out: Growth inhibition Ca

SMILES	inhibition at 32 µg/mL [1, 5]	Uptake by E. coli K12 [2]	Uptake by E. coli K12 at 4° C. [2]	Cell affinity relative to COE-D4 ([2]; E. coli K12)	MIC [3, 6]	MIC [3, 7]	MIC [3, 8]	inhibition at 32 µg/mL [4, 9]	inhibition at 32 µg/mL [1, 10]	MIC [3, 11]	inhibition at 32 µg/mL [4, 12]
C[N+](C)(C)CCCCCCCCOc1ccc(/C=C/c2ccc(OCCCCCCCC[N+](C)(C)C)cc2)cc1 [COE-D8]	50 to 80%	72% and 72 ± 5%	~34%	30 times	4 µg/mL	4 µg/mL	2.9 µg/mL	> 80%	–	–	–
CN(C)CC[N+](C)(C)CCCCCCCCOc1ccc(/C=C/c2ccc(OCCCCCCCC[N+](C)(C)CCN(C)C)cc2)cc1 [COE-D82N]	–	76±3%	–	–	–	–	–	–	50 to 80%	8 µg/mL	> 80%
C[N+](C)(C)CCCCOc1ccc(/C=C/c2ccc(OCCCC[N+](C)(C)C)cc2)cc1 [COE-D4]	< 50%	3% and 3 ± 2%	around 1%	–	128 µg/mL	128 µg/mL	3.8 µg/mL	< 50%	–	–	–
C[N+](C)(C)CCCCCCOc1ccc(/C=C/c2ccc(OCCCCCC[N+](C)(C)C)cc2)cc1 [COE-D6]	< 50%	16% and 16 ± 3%	~5%	–	16 µg/mL	16 µg/mL	2.6 µg/mL	> 80%	–	–	–
CN(C)CC[N+](C)(C)CCCCCCOc1ccc(/C=C/c2ccc(OCCCCCC[N+](C)(C)CCN(C)C)cc2)cc1 [COE-D62N]	–	11±2%	–	–	–	–	–	–	< 50%	8 µg/mL	> 80%
